Laboratory results from US20240376126A1, “PRMT5 INHIBITOR AND THE USE THEREOF” (CYTOSINLAB THERAPEUTICS CO., LTD., priority 2022, published 2024).
Like-named read-outs stand apart in the source and are kept apart here.

How the values were obtained:
[1] = test system: HCT116 MTAP WT cells; assay: Proliferation inhibition of HCT116 cells in vitro (CellTiter Glo, 6 days); format: cell-based; details: read-out: Cell proliferation inhibition rate HCT116 MTAP WT IC50 (nm)
Text: (§1) Biological Test Example 2 Proliferation Inhibition of HCT116 and HCT116 MTAP-KO Cells In Vitro
(§2) HCT116 cell line was purchased from the Chinese Academy of Sciences Cell Bank, and the MTAP gene was knocked out by CRISPR/Cas9 technology to obtain HCT116-MTAP-KO cell line.
(§3) McCoy's 5A medium (Gibco, catalog No. 16600082), fetal bovine serum (Gibco, catalog No. 10099141C), penicillin-streptomycin double antibody (Gibco, catalog No. 15140122), pancreatic enzyme (Gibco, catalog No. 25200056), CellTiter Glo assay kit (Promega, catalog No. G7572), 384-well transparent flat-bottomed black walled cell culture plate (Corning, catalog No. 3764), ultra micro sampler (Tecan, catalog No. D300e), Multimode reader (Biotek, catalog No. SynergyHTX)
(§4) • 1. Cell culture: HCT116 and HCT116-MTAP-KO cells were cultured in McCoy'5A medium+10% fetal bovine serum+1% penicillin-streptomycin double antibody; to ensure that they were always in the logarithmic growth phase and the cell viability greater than 95%. • 2. Compound concentration gradient preparation: The compound to be tested was added to a 384-well plate using an ultra micro sampler, starting from 30 μM (HCT116 cells) or 3 μM (HCT116-MTAP-KO cells), and diluted with DMSO at 3 times for a total of 9 concentrations and set up three duplicate wells. • 3. Treatment of cells with compounds: Trypsin-digested HCT116 or HCT116-MTAP-KO cell suspension was added to the 384-well plates spotted with the compounds to be tested at 40 μL per well, i.e., 100 cells per well, and the final concentration of DMSO was 0.4%. The cell culture plate was incubated at 37° C. in a 5% CO2 incubator for 6 days. • 4. Detection: 20 μL of CellTiter Glo reagent was added to each well of the cell culture plate and incubated at room temperature for 30 minutes. A multimode reader was used to detect the luminescence signal at […]. • 5. Data analysis:
(§5) The data was fitted with GraphPad Prism 8.0 software using a four parameter inhibitor-reaction model to obtain the […] (half inhibitory concentration) of the test compounds.
(§6) The first column represents cell proliferation inhibition rate HCT116 MTAP WT IC50 (nm), and the second column represents cell proliferation inhibition rate HCT116-MTAP null IC50 (nm): […]

[2] = test system: HCT116-MTAP-KO (MTAP null) cells; assay: Proliferation inhibition of HCT116 MTAP-KO cells in vitro (CellTiter Glo, 6 days); format: cell-based; details: read-out: Cell proliferation inhibition rate HCT116-MTAP null IC50 (nm)
Text: as §1, §2, §3, §4, §5, §6

| Structure (SMILES) | IC50 ([1]; Homo sapiens, HCT-116, 144 h) | IC50 ([2]; HCT116-MTAP null, 144 h) | IC50 [1] | IC50 [2] |
| --- | --- | --- | --- | --- |
| CC1OCc2c1c(N)nc1ccc(C(=O)N(Cc3cn4ccccc4n3)C34CC(C3)C4)cc21 (stereo not shown) [Example 56] | 1 to 10 µM | 0.1 to 1 µM |  |  |
| CC1OCc2c1c(N)nc1ccc(C(=O)N(Cc3cn4ccccc4n3)c3cnn(C)c3)cc21 (stereo not shown) [Example 57] | 1 to 10 µM | 0.1 to 1 µM |  |  |
| CC(C)CN(Cc1nc2ccccn2c1F)C(=O)c1cc2c(cc1F)nc(N)c1cnn(C)c12 [Example 58] | 0.1 to 1 µM | < 0.1 µM |  |  |
| Cn1ncc2c(N)nc3cc(F)c(C(=O)N(Cc4cn5ccccc5n4)C45CC(F)(C4)C5)cc3c21 [Example 59] | 1 to 10 µM | < 0.1 µM |  |  |
| COCCN(C(=O)c1cc2c(cc1F)nc(N)c1cnn(C)c12)C(C)c1cn2ccccc2n1 (stereo not shown) [Example 60] | 1 to 10 µM | < 0.1 µM |  |  |
| Cn1ncc2c(N)nc3cc(F)c(C(=O)N(Cc4cn5ccccc5n4)C45CC(C#N)(C4)C5)cc3c21 [Example 61] | 1 to 10 µM | < 0.1 µM |  |  |
| Cn1ncc2c(N)nc3cc(F)c(C(=O)N(Cc4cn5ccccc5n4)C45CC(C(F)(F)F)(C4)C5)cc3c21 [Example 62] | 1 to 10 µM | < 0.1 µM |  |  |
| C[C@@H]1COC[C@H](c2cn3ccccc3n2)N1C(=O)c1ccc2nc(N)c3cnn(C)c3c2c1 [Example 63] | 1 to 10 µM | < 0.1 µM |  |  |
| CC1OCc2c1c(N)nc1ccc(C(=O)N3[C@H](C)COC[C@@H]3c3cn4ccccc4n3)cc21 (stereo partly shown) [Example 64] | 1 to 10 µM | 0.1 to 1 µM |  |  |
| CC1OCc2c1c(N)nc1ccc(C(=O)N(Cc3cn4ccccc4n3)C(C)C(F)(F)F)cc21 (stereo not shown) [Example 65] | 1 to 10 µM | 0.1 to 1 µM |  |  |
| CC1OCc2c1c(N)nc1ccc(C(=O)N(Cc3cn4ccccc4n3)CC(F)F)cc21 (stereo not shown) [Example 66] | 1 to 10 µM | 0.1 to 1 µM |  |  |
| CC1OCc2c1c(N)nc1ccc(C(=O)N3C(C)COCC3c3cn4cc(C(F)(F)F)ccc4n3)cc21 (stereo not shown) [Example 67] | 1 to 10 µM | 0.1 to 1 µM |  |  |
| Cn1cc(N(Cc2cn3cc(C(F)(F)F)ccc3n2)C(=O)c2ccc3nc(N)c4c(c3c2)COC4)cn1 [Example 68] | 1 to 10 µM | < 0.1 µM |  |  |
| CCN(Cc1cn2ccccc2n1)C(=O)c1cc2c(cn1)nc(N)c1cnc(C)n12 [Example 69] | 1 to 10 µM | 0.1 to 1 µM |  |  |
| CC1OCc2c1c(N)nc1ccc(C(=O)N(Cc3nc4ccc(C(F)(F)F)cn4c3F)c3cnn(C)c3)cc21 (stereo not shown) [Example 71] | 1 to 10 µM | < 0.1 µM |  |  |
| C[C@H]1OCc2c1c(N)nc1ccc(C(=O)N(Cc3cn4c(C(F)(F)F)cccc4n3)c3cnn(C)c3)cc21 [Example 72] | 1 to 10 µM | 1 to 10 µM |  |  |
| C[C@@H]1OCc2c1c(N)nc1ccc(C(=O)N(Cc3cn4c(C(F)(F)F)cccc4n3)c3cnn(C)c3)cc21 [Example 73] | 1 to 10 µM | < 0.1 µM |  |  |
| CC1OCc2c1c(N)nc1ccc(C(=O)N(Cc3cn4c(C(F)(F)F)cccc4n3)c3cnn(C)c3)cc21 (stereo not shown) [Example 74] | 1 to 10 µM | 0.1 to 1 µM |  |  |
| Cc1ccc2nc(CN(C(=O)c3ccc4nc(N)c5c(c4c3)COC5C)c3cnn(C)c3)cn2c1 (stereo not shown) [Example 75] | 1 to 10 µM | < 0.1 µM |  |  |
| CC1OCc2c1c(N)nc1ccc(C(=O)N(Cc3cn4cc(C(F)F)ccc4n3)c3cnn(C)c3)cc21 (stereo not shown) [Example 78] | 1 to 10 µM | < 0.1 µM |  |  |
| Cn1cc(N(Cc2cn3cc(C(F)(F)F)ccc3n2)C(=O)c2cc3c4c(c(N)nc3cc2F)COC4)cn1 [Example 80] | 1 to 10 µM | < 0.1 µM |  |  |
| Cn1cc(N(Cc2cn3ccccc3n2)C(=O)c2cc3c4c(c(N)nc3cc2F)COC4)cn1 [Example 82] | 1 to 10 µM | < 0.1 µM |  |  |
| Cn1cc(N(Cc2nc3ccccn3c2F)C(=O)c2cc3c4c(c(N)nc3cc2F)COC4)cn1 [Example 83] | 0.1 to 1 µM | < 0.1 µM |  |  |
| Cn1cc(N(Cc2nc3ccc(C(F)(F)F)cn3c2F)C(=O)c2cc3c4c(c(N)nc3cc2F)COC4)cn1 [Example 84] | 1 to 10 µM | < 0.1 µM |  |  |
| CCN(Cc1cn2cc(C(F)(F)F)ccc2n1)C(=O)c1cc2c3c(c(N)nc2cc1F)COC3 [Example 85] | 1 to 10 µM | < 0.1 µM |  |  |

| Structure (SMILES) | IC50 ([1]; Homo sapiens, HCT-116, 144 h) | IC50 ([2]; HCT116-MTAP null, 144 h) | IC50 [1] | IC50 [2] |
| --- | --- | --- | --- | --- |
| CCN(Cc1cn2ccccc2n1)C(=O)c1cc2c3c(c(N)nc2cc1F)COC3 [Example 86] | 1 to 10 µM | < 0.1 µM |  |  |
| Cc1ccc2nc(CN(C(=O)c3cc4c5c(c(N)nc4cc3F)COC5)c3cnn(C)c3)cn2c1 [Example 87] | 1 to 10 µM | < 0.1 µM |  |  |
| Cn1ncc(N(Cc2cn3cc(C(F)(F)F)ccc3n2)C(=O)c2cc3c4c(c(N)nc3cc2F)COC4)n1 [Example 88] | 1 to 10 µM | < 0.1 µM |  |  |
| Cc1nn(C)cc1N(Cc1cn2cc(C(F)(F)F)ccc2n1)C(=O)c1ccc2nc(N)c3c(c2c1)COC3 [Example 89] | 1 to 10 µM | < 0.1 µM |  |  |
| Cc1nn(C)cc1N(Cc1cn2cc(C(F)(F)F)ccc2n1)C(=O)c1ccc2nc(N)c3c(c2c1)CO[C@H]3C [Example 90] | 0.1 to 1 µM | < 0.1 µM |  |  |
| Cn1cc(N(Cc2nc3ccc(C(F)(F)F)cn3c2F)C(=O)c2ccc3nc(N)c4c(c3c2)COC4)cn1 [Example 91] | 1 to 10 µM | < 0.1 µM |  |  |
| Cn1cc(N(Cc2nc3ccccn3c2F)C(=O)c2ccc3nc(N)c4c(c3c2)COC4)cn1 [Example 92] | 1 to 10 µM | < 0.1 µM |  |  |
| Cc1nn(C)cc1N(Cc1nc2ccc(C(F)(F)F)cn2c1F)C(=O)c1ccc2nc(N)c3c(c2c1)COC3 [Example 93] | 1 to 10 µM | < 0.1 µM |  |  |
| Nc1nc2cc(F)c(C(=O)N(Cc3cn4cc(C(F)(F)F)ccc4n3)C3CCOC3)cc2c2c1COC2 (stereo not shown) [Example 94] | 1 to 10 µM | 0.1 to 1 µM |  |  |
| CCn1cc(N(Cc2cn3cc(C(F)(F)F)ccc3n2)C(=O)c2ccc3nc(N)c4c(c3c2)COC4)c(C)n1 [Example 95] | 1 to 10 µM | < 0.1 µM |  |  |
| Cc1nn(C)cc1N(Cc1nc2ccccn2c1F)C(=O)c1ccc2nc(N)c3c(c2c1)COC3 [Example 96] | 1 to 10 µM | < 0.1 µM |  |  |
| CCc1nn(C)cc1N(Cc1cn2cc(C(F)(F)F)ccc2n1)C(=O)c1ccc2nc(N)c3c(c2c1)COC3 [Example 97] | 1 to 10 µM | < 0.1 µM |  |  |
| Cc1cc(N(Cc2cn3cc(C(F)(F)F)ccc3n2)C(=O)c2ccc3nc(N)c4c(c3c2)COC4)n(C)n1 [Example 98] | 1 to 10 µM | < 0.1 µM |  |  |
| Cc1ncccc1N(Cc1cn2cc(C(F)(F)F)ccc2n1)C(=O)c1ccc2nc(N)c3c(c2c1)COC3 [Example 99] | 1 to 10 µM | < 0.1 µM |  |  |
| Cc1ncccc1N(Cc1cn2cc(C(F)(F)F)ccc2n1)C(=O)c1ccc2nc(N)c3c(c2c1)COC3C (stereo not shown) [Example 100] | 1 to 10 µM | < 0.1 µM |  |  |
| CCn1cc(N(Cc2nc3ccc(C(F)(F)F)cn3c2F)C(=O)c2ccc3nc(N)c4c(c3c2)COC4)c(C)n1 [Example 101] | 1 to 10 µM | < 0.1 µM |  |  |
| Cc1cc2cc(C(=O)N(Cc3cn4cc(C(F)(F)F)ccc4n3)c3cn(C)nc3C)ccc2nc1N [Example 103] | 1 to 10 µM | 0.1 to 1 µM |  |  |
| Cc1nn(C)cc1N(Cc1cn2cc(C(F)(F)F)ccc2n1)C(=O)c1cc2c(cc1F)nc(N)c1cnn(C)c12 [Example 104] |  |  | 0.1 to 1 µM | < 0.1 µM |
| Cc1nn(C)cc1N(Cc1cn2cc(C(F)(F)F)ccc2n1)C(=O)c1ccc2nc(N)c3c(cnn3C)c2c1 [Example 105] | 1 to 10 µM | < 0.1 µM |  |  |
| Cn1nccc1N(Cc1cn2cc(C(F)(F)F)ccc2n1)C(=O)c1ccc2nc(N)c3c(c2c1)COC3 [Example 107] | 1 to 10 µM | < 0.1 µM |  |  |
| Cc1cc(NC(=O)C(=O)N(Cc2cn3cc(C(F)(F)F)ccc3n2)c2cn(C)nc2C)cnc1N [Example 108] | 1 to 10 µM | < 0.1 µM |  |  |
| Cc1nn(C)cc1N(Cc1cn2cc(C(F)(F)F)ccc2n1)C(=O)c1ccc2nc(N)c3c(c2c1)OCC3 [Example 109] | 1 to 10 µM | < 0.1 µM |  |  |
| Cn1nccc1N(Cc1cn2cc(C(F)(F)F)ccc2n1)C(=O)c1cc2c(cc1F)nc(N)c1cnn(C)c12 [Example 111] |  |  | < 0.1 µM | < 0.1 µM |
| Cn1nccc1N(Cc1cn2cc(C(F)(F)F)ccc2n1)C(=O)c1ccc2nc(N)c3c(c2c1)OCC3 [Example 112] | 0.1 to 1 µM | < 0.1 µM |  |  |
| Cn1cc(N(Cc2cn3cc(C(F)(F)F)ccc3n2)C(=O)c2ccc3nc(N)c4c(c3c2)OCC4)cn1 [Example 113] | 1 to 10 µM | 0.1 to 1 µM |  |  |
